One experiment deals with T1, ERK3 (Homo sapiens, UniProt Q16659).
T1 construct: purchased DiscoveRx KINOMEscan
Put plainly: KINOMEscan. The experiment is classed as binding. Particulars: read-out: % Ctrl.

In another experiment the target is T2, LIMK2 (Homo sapiens, UniProt P53671).
T2 construct: purchased DiscoveRx KINOMEscan
Briefly: KINOMEscan. In kind it is binding. Particulars: read-out: % Ctrl.

In a further experiment the target is T3, DCAMKL2 (Homo sapiens, UniProt Q8N568).
T3 construct: purchased DiscoveRx KINOMEscan
Put plainly: KINOMEscan. The experiment is classed as binding. Particulars: read-out: % Ctrl.

For the next experiment, the target named is T4, MAP3K15 (Homo sapiens, UniProt Q6ZN16).
T4 construct: purchased DiscoveRx KINOMEscan
Briefly: KINOMEscan. The experiment is classed as binding. The note with it: read-out: % Ctrl.

The target of a further experiment is T5, DAPK1 (Homo sapiens, UniProt P53355).
T5 construct: purchased DiscoveRx KINOMEscan
Put plainly: KINOMEscan. In kind it is binding. The note with it: read-out: % Ctrl.

The next experiment deals with T6, PIP5K2C (Homo sapiens, UniProt Q8TBX8).
T6 construct: purchased DiscoveRx KINOMEscan
Put plainly: KINOMEscan. Particulars: read-out: % Ctrl. The experiment is classed as binding.

The target in a further experiment is T7, HIPK4 (Homo sapiens, UniProt Q8NE63).
T7 construct: purchased DiscoveRx KINOMEscan
Briefly: KINOMEscan. In kind it is binding. Particulars: read-out: % Ctrl.

The target in a further experiment is T8, CDC2L5 (Homo sapiens, UniProt Q14004).
T8 construct: purchased DiscoveRx KINOMEscan
Put plainly: KINOMEscan. In kind it is binding. The note with it: read-out: % Ctrl. The procedure:
(§1) The KINOMEscan ^TM screening platform employs an active site-directed competition binding assay to quantitatively measure interactions between test compound and 468 human kinases and disease relevant mutant variants. […] The assay was performed at DiscoveRx Corporation.

The next experiment has as its target T9, PRP4 (Homo sapiens, UniProt Q13523).
T9 construct: purchased DiscoveRx KINOMEscan
Briefly: KINOMEscan. In kind it is binding. The note with it: read-out: % Ctrl. The protocol: as §1

For a further experiment, the target named is T10, MKNK1 (Homo sapiens, UniProt Q9BUB5).
T10 construct: purchased DiscoveRx KINOMEscan
Put plainly: KINOMEscan. The experiment is classed as binding. The note with it: read-out: % Ctrl.

Another experiment concerns the target T11, LRRK2 (Homo sapiens, UniProt Q5S007).
T11 construct: purchased DiscoveRx KINOMEscan
Briefly: KINOMEscan. The note with it: read-out: % Ctrl. The experiment is classed as binding.

Experiment [1] concerns the target T12, EGFR(L747-E749del, A750P) (Homo sapiens, UniProt P00533, A750P/DEL747-749).
T12 construct: purchased DiscoveRx KINOMEscan
Put plainly: KINOMEscan. The experiment is classed as binding. The note with it: read-out: % Ctrl.

The target in another experiment is T13, CAMK2G (Homo sapiens, UniProt Q13555).
T13 construct: purchased DiscoveRx KINOMEscan
Briefly: KINOMEscan. The experiment is classed as binding. Particulars: read-out: % Ctrl.

Another experiment concerns the target T14, FER (Homo sapiens, UniProt P16591).
T14 construct: purchased DiscoveRx KINOMEscan
Briefly: KINOMEscan. The experiment is classed as binding. Particulars: read-out: % Ctrl.

The target in the next experiment is T15, INSR (Homo sapiens, UniProt P06213).
T15 construct: purchased DiscoveRx KINOMEscan
Briefly: KINOMEscan. In kind it is binding. The note with it: read-out: % Ctrl.

Another experiment has as its system PDAC4 3D spheres. Put plainly: Viability curves on PDAC4 3D spheres. Particulars: Homo sapiens, 30 h. In kind it is cell-based, human. The text has this: The PDAC patient-derived xenograft (PDX) Panc354 (referred to hereafter as PDAC3) was obtained from Dr. Manuel Hidalgo under a Material Transfer Agreement with the Spanish National Cancer Centre (CNIO), Madrid, Spain (Reference no. I409181220BSMH). PDAC1, PDAC2 and PDAC4 PDXs were established from primary patient resected tumors. Samples were provided by the BioBank Hospital Ramón y Cajal-IRYCIS (PT13/0010/0002), integrated in the Spanish National Biobanks Network and they were processed following standard operating procedures with the appropriate approval of the Ethical and Scientific Committees (Control no. No. Control: DE-BIOB-73 AC65, RG.BIOB-96 REV, and CI-BIOB-08-10-01 rev), with informed consent and according to Declaration of Helsinki principles. Primary patient tumors were subcutaneously implanted in immunocompromised female 6- to 8-week-old NU-Foxn1nu nude mice (Envigo, Barcelona, Spain) and subsequently passage in vivo to establish PDX PDAC1, PDAC2 and PDAC4. Primary PDX-derived in vitro cultures were established as previously detailed. […]
Pancreatic CSC spheres were generated as previously described in ultra-low attachment plates (Corning) using CSC media: serum-free DMEM/F12 medium (1:1; #21331-020; Gibco, Waltham, MA, USA), supplemented with Pen/Strep (1:100; #1500-063; Gibco, Waltham, MA, USA), Fungizone (1:250; #15290-018; Gibco), L-Glutamine (1:100; #25030-024; Gibco, Waltham, MA, USA), B-27 (1:50; #17504-044; Gibco, Waltham, MA, USA) and basic fibroblast growth factor (FGF-b) (1:5000; Gibco, Waltham, MA, USA). […] To quantify spheres of > 40 μm, 1 mL of sample volume was analyzed with a CASY® Cell Counter (Roche Applied Sciences, Mannheim, Germany). […]

For the next experiment, the system named is FLT3(ITD). Briefly: KINOMEscan. In kind it is binding, human. The note with it: 1 µM.
In another experiment the target is T16, EGFR(L858R,T790M) (Homo sapiens, UniProt P00533, L858R/T790M).
T16 construct: purchased DiscoveRx KINOMEscan
Briefly: KINOMEscan. The experiment is classed as binding. Particulars: read-out: % Ctrl.

Each structure is given as a SMILES string.

T4 sequence (Q6ZN16 whole entry): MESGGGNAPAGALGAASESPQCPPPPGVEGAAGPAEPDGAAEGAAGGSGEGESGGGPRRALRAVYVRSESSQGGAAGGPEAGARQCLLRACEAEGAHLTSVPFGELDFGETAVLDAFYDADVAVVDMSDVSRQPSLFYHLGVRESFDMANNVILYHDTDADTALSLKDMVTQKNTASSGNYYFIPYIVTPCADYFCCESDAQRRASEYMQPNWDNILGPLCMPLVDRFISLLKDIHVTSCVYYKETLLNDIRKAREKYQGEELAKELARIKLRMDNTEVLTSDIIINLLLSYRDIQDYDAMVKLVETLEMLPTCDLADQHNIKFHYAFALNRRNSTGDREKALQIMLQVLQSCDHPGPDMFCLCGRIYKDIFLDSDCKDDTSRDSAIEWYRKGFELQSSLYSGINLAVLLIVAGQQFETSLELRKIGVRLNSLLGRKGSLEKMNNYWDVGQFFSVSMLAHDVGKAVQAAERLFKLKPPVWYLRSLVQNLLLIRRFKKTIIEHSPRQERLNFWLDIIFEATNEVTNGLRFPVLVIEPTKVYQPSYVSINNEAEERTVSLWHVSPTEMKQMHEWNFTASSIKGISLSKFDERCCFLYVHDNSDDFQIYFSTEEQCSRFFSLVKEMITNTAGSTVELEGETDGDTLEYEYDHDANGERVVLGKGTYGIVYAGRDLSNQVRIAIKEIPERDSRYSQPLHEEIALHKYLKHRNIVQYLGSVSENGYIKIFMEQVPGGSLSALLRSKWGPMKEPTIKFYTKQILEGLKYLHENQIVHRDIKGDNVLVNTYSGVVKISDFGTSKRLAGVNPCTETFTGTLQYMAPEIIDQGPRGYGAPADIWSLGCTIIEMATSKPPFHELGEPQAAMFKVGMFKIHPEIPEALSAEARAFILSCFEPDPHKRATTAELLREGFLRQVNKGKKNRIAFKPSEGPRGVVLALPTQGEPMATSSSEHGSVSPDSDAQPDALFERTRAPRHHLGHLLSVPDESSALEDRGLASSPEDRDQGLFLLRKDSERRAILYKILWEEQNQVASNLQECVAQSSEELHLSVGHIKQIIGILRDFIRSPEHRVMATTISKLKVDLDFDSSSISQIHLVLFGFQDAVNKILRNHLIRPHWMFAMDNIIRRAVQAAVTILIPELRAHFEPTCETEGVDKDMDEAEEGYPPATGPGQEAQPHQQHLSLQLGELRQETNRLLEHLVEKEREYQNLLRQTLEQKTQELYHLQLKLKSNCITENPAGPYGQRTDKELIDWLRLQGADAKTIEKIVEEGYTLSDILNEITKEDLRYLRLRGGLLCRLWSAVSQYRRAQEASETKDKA
T8 sequence (Q14004 whole entry): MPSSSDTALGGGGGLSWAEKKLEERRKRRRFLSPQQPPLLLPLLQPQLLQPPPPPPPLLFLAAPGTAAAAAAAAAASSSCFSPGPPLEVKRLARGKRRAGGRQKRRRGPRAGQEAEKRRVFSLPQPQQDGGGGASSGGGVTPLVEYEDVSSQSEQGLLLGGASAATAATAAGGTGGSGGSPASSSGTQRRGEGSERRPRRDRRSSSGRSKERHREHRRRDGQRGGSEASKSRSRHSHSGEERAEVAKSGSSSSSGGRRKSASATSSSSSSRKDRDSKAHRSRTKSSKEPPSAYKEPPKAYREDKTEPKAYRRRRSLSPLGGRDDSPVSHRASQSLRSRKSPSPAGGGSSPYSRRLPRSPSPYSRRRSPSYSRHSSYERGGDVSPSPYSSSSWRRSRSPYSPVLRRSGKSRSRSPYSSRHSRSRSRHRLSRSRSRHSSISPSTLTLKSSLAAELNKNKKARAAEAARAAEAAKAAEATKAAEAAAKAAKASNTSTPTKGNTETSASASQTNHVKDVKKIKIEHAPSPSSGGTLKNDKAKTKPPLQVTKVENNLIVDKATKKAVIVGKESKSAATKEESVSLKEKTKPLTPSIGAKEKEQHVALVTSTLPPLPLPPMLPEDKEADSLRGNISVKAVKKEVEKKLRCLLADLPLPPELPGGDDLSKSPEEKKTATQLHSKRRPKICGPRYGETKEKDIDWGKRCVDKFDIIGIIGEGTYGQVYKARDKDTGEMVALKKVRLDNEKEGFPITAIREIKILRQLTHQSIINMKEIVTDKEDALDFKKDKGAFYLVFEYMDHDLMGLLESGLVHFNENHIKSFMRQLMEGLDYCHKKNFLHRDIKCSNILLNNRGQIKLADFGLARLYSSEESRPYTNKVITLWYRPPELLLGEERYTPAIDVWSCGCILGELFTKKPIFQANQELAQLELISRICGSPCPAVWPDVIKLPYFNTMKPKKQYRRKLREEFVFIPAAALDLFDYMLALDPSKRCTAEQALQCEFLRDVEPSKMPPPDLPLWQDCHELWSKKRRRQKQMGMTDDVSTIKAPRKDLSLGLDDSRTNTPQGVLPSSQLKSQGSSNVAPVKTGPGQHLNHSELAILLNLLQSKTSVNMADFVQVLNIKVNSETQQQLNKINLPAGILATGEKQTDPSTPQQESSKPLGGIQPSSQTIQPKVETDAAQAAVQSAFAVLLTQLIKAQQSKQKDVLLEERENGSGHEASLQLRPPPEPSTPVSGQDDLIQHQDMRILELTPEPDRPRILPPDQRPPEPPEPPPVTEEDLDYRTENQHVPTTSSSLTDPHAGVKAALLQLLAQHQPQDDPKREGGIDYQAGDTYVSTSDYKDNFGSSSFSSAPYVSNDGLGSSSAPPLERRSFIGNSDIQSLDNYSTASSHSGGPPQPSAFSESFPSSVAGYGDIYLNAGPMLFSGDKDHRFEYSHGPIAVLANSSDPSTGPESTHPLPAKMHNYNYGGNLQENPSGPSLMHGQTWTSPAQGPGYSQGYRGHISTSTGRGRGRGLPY
T10 sequence (Q9BUB5 whole entry): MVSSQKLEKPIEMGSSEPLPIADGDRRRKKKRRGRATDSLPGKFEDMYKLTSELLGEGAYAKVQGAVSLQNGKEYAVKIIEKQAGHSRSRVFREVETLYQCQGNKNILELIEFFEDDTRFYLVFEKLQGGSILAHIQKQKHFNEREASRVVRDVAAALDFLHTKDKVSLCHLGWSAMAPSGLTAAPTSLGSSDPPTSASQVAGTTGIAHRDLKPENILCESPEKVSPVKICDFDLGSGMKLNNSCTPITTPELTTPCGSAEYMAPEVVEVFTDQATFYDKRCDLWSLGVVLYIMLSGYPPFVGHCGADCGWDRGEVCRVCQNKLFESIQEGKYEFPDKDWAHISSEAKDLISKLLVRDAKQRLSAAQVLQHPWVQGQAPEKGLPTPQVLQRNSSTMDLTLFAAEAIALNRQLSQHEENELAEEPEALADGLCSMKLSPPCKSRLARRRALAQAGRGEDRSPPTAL
T7 sequence (Q8NE63 whole entry): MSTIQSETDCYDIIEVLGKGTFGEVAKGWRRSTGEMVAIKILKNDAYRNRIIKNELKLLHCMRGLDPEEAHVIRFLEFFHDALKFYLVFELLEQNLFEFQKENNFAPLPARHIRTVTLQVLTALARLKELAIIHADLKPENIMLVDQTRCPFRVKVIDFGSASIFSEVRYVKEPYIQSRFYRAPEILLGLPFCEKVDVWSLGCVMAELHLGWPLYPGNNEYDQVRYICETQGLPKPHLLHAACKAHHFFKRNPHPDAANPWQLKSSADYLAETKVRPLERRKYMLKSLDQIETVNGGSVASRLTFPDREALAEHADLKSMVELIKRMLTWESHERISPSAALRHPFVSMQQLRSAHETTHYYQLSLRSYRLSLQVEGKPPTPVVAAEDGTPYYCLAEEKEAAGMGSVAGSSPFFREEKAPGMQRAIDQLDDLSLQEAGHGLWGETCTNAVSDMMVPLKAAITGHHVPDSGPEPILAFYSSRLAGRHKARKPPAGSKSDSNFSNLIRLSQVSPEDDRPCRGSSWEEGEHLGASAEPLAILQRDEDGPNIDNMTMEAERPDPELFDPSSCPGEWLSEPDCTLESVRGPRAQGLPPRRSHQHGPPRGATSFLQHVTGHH
T12 sequence (P00533 with tags, fused parts or gaps DEL747-749/A750P limits assumed): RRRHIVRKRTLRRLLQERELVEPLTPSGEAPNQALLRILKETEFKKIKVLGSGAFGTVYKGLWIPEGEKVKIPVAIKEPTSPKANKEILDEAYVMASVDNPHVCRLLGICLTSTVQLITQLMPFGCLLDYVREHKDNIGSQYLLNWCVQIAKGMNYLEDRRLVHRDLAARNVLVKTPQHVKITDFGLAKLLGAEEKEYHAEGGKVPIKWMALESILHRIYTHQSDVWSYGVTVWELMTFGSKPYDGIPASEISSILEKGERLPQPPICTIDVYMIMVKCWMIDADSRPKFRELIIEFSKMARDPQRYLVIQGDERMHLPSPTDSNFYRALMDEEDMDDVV
T2 sequence (P53671 whole entry): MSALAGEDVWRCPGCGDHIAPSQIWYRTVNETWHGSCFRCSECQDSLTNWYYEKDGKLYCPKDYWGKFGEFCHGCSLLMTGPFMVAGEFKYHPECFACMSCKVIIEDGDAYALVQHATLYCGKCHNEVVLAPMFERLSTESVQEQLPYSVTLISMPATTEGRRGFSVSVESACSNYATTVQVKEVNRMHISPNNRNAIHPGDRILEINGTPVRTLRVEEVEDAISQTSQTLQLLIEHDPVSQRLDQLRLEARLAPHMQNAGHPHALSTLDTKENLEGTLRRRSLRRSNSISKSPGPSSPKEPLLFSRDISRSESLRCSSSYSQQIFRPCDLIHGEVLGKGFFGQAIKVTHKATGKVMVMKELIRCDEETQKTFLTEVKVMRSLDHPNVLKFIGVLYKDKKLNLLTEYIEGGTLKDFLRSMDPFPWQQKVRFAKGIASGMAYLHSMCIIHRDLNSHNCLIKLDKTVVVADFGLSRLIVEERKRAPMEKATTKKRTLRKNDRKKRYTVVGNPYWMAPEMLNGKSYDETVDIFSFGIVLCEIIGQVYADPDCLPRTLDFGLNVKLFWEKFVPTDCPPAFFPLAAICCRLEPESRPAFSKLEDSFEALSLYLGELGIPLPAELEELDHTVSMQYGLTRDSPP

As a reminder, the EC50 is the midpoint of the concentration-response curve. For `CN1CCC(CNc2ccc3ncc(C(=O)Nc4cccc(OC(F)(F)F)c4)n3n2)CC1` [Cpd 2], the remaining binding at 1 µM on ERK3 was found to be 100%; on LIMK2 it was 99%; at DCAMKL2, 97%; at MAP3K15, 100%; at DAPK1, 82%; on PIP5K2C, 58%. Moreover, the remaining binding at 1 µM on HIPK4 came to 88%; on CDC2L5 it was 100%; on PRP4 it was 100%; at MKNK1, 86%; on LRRK2, 68%; in [1], 84%. Also, the remaining binding at 1 µM was 100% at CAMK2G, 98% on FER, 100% at INSR and 100% on EGFR(L858R,T790M). In the experiment on PDAC4 3D spheres, this molecule gave an EC50 of 7.17 µM. Also, the “% Ctrl” value with FLT3(ITD) stood at 100%.
